How the values were obtained:
[1] = tested on: autologous and allogeneic PBMCs; experiment: Cytotoxicity of DNT cells against normal blood cells; assay type: cell-based, human; settings: PBMCs from healthy donors
Text: To determine if Ven increases the cytotoxicity of DNT cells against normal blood cells, autologous and allogeneic PBMCs from healthy donors were used as targets.

[2] = tested on: human AML cell line, OCI-AML2; experiment: Drug screening assay: DNT cells pretreated with 269 approved drugs, then used as effectors against AML; assay type: cell-based; settings: DNT cells treated at 400 nM overnight, washed, cultured with AML cells two hours; library of 269 drugs
Description: FIG. 1. Drug screening assay identifies Venetoclax as the top hit for enhancing cytotoxicity of T cells against AML. Schematic diagram of drug screening assay done to identify clinically approved drugs that can be used in combination with DNT cells to yield in synergistic anti-tumor activity. DNT cells were treated with 269 different clinically approved drugs at 400 nM for overnight. Subsequently, compound-treated cells were washed and then cultured with AML cells for two-hours.
To identify molecules that increase the potency of T cell mediated cytotoxicity against AML, ex vivo expanded DNT cells were used as a surrogate for anti-leukemic T cells and pretreated with a compound library of 269 drugs approved for various clinical uses. Subsequently, compound-treated cells were used as effectors against human AML cell line, OCI-AML2.

[3] = tested on: primary AML patient samples; assay type: cell-based, human
Description: (§1) FIG. 2. Venetoclax enhances T cell mediated cytotoxicity against AML in vitro. (A) To validate the finding from the drug screening, in vitro killing assay was conducted with DNT cells untreated or pretreated with various concentrations of Ven (50 nM, 100 nM, 200 nM, 400 nM) for overnight against AML cell lines, OCI-AML2, OCI-AML3, and KG1a. The data is representative of four biological replicates. (B) In vitro cytotoxicity assay using DNT cells pretreated with 400 nM Ven as effectors against primary AML patient samples (n=17). (C) To determine the activity of DNT cells with or without Ven-treatment against leukemia initiating cells, untreated AML or AML treated with untreated or Ven-treated DNT cells were seeded at 10^3 cells per ml in a methylcellulose-based colony forming assay, and the number of colonies formed were determined 10 days after. The experiment was done with OCI-AML2 and KG1a, as well as patient samples 140372, 100857, 110162 and 141065. […] The experiment was done using DNT cells from two different donors (UPN119 and UPN38). […] Subsequently, they were cultured with OCI-AML2 at 1:1, 2:1, or 4:1 DNT:AML ratio, and the viability of AML cells were measured by Annexin V staining and flow cytometry. […]
FIG. 11. […] The increase in DNT-mediated cytotoxicity by Venetoclax treatment was determined against each patient sample type. […]

DNT and Tconv cells = experiment: Viability of DNT and Tconv cells after Venetoclax treatment; assay type: cell-based, human; settings: Venetoclax 100 nM or 400 nM, 4 hours
Description: (§2) Venetoclax rapidly and directly increases cytotoxicity of T cells against AML. DNT (top panels) and Tconv cells (bottom panels) untreated or treated with Venetoclax (100 nM and 400 nM) for 4 h, 18 h, and 3 days. Subsequently, their cytotoxicity against OCI-AML2 was determined. Data represent the mean ±SEM of results from four different donor T cells. FIG. 4(C). DNT and Tconv cells untreated or treated with Venetoclax (100 nM or 400 nM) for 4 hours. Subsequently, their viability was determined. Data represent the mean ±SEM of results from four different donor T cells.
(§3) To elucidate the underlying mechanism by which Ven-mediates increased cytotoxicity of T cells, the expression of T cell activation markers and effector molecules on DNT cells with or without Ven treatment was compared. […] Thus, Venetoclax directly activates effector T cells to increase their cytotoxicity without depleting naïve or inhibitory T cell subsets.

DNT cells = experiment: Glycolysis, glycolytic capacity and oxygen consumption rate of DNT cells; assay type: cell-based, human
[4] = tested on: AML cell lines, OCI-AML2, OCI-AML3, and KG1a; experiment: In vitro killing assay with Ven-pretreated Tconv cells against AML cell lines; assay type: cell-based, human; settings: Ven 25-400 nM
Description: FIG. 4(A). Venetoclax enhances anti-leukemic activity of CD4^+ or CD8^+ conventional T cells. Ex vivo expanded Tconv cells untreated or treated with various concentrations of Ven (25 nM, 50 nM, 100 nM, 200 nM, or 400 nM), were used as effector cells against AML cell lines, OCI-AML2, OCI-AML3, and KG1a. The result shown represents four biological replicates. FIG. 4(B).
While treating DNT cells with Ven to enhance their anti-leukemic activity may be beneficial for DNT-therapy, experiments were performed to determine whether Ven has an effect on the anti-leukemic activity of CD4^+ or CD8^+ conventional T (Tconv) cells as Tconv cells are more wildly used as cancer immunotherapy clinically. To this end, polyclonally activated Tconv cells were pre-treated with different concentrations of Ven prior to their co-culture with […]

[5] = tested on: AML cell lines, OCI-AML2, OCI-AML3, and KG1a; experiment: In vitro killing assay with Ven-pretreated DNT cells against AML cell lines; assay type: cell-based, human; settings: Ven 50, 100, 200, 400 nM overnight
Description: as §1, with “UPN38). (E) Correlation between the susceptibility of AML to DNT cells and the degree of increase in DNT cell-mediated cytotoxicity by Ven treatment.” for “UPN38).”

DNTs [6] = experiment: Viability of DNTs treated with Venetoclax (Annexin V staining and flow cytometry); assay type: cell-based, human; settings: Venetoclax 18 h
Description: FIG. 10. […] (A) Viability of DNTs and OCI-AML2 cells treated with 400 nM Venetoclax for 18 hours was determined by Annexin V staining and flow cytometry. (B and C) DNTs were treated with increasing concentrations of Venetoclax for 18 h. Subsequently, their viability (B) and cytotoxicity (C) against OCI-AML2 and two primary AML cells (090765 and 110162) were determined. ANOVA was used for statistics. ****p<0.0001.

OCI-AML2 [7] = experiment: Time course of Venetoclax treatment of DNT and Tconv cells, cytotoxicity against OCI-AML2; assay type: cell-based, human; settings: DNTs and Tconv cells; Venetoclax 100 nM and 400 nM; 4 hours up to 3 days
Description: as §2, §3

DNTs [8] = experiment: Effect of other ROS-inducing reagents on DNT ROS level and viability; settings: 18 hours; cytarabine 0-3 μM, antimycin 0-250 nM, daunorubicin 0-10 μM
Description: (§4) FIG. 15. Effect of other known ROS-inducing reagents on DNT viability, ROS level, and cytotoxicity against AML. DNTs were treated with increasing concentrations of cytarabine (0-3 μM), antimycin (0-250 nM) or daunorubicin (0-10 μM) for 18 hours. Subsequently, the level of cellar ROS in the DNTs (A), DNT viability (B), and cytotoxicity against OCI-AML2 (C) were determined.
(§5) To determine the effect of other ROS-inducing agents on DNT-mediated cytotoxicity, DNTs were treated with increasing concentrations of cytarabine, daunorubicin, and antimycin.

OCI-AML2 [9] = experiment: Effect of other ROS-inducing reagents on DNT cytotoxicity against OCI-AML2; settings: 18 hours; cytarabine 0-3 μM, antimycin 0-250 nM, daunorubicin 0-10 μM
Description: as §4, §5

[10] = tested on: DNTs treated with 400 nM Ven; experiment: Co-treatment of DNT cells with Venetoclax and ROS scavenger NAC; assay type: cell-based, human
Description: (C) To determine the functional relevance of increased ROS level in Ven treated DNTs, ROS level in DNTs treated with 400 nM Ven in the presence of various concentrations of ROS-scavenger, N-acetylcysteine (NAC), and these cells were used as effector cells against AML during an in vitro killing assay. The result shown is representative of three independent experiments. […] (H-K) DNT (H and I) or Tconv cells (J and K) were treated with 0 nM, 100 nM, or 400 nM Venetoclax for 4 hours, 18 hours and 2 days. Cells were stained with CellROX (H and J) or MitoSOX (I and K). MFI of cellular or mitochondrial (mt) ROS was measured by flow cytometry. Data represent the mean ±SEM of results from four different donor T cells. (L) DNTs treated with 400 nM Venetoclax with or without 2 mM NAC for 18 hours. […] MFI of CD25 and CD69 were measured by flow cytometry. Experiments were done in triplicates, and the data shown is representative of two independent experiments done using DNTs from two donors. (M) DNT cells were treated with 400 nM Venetoclax for 18 hours.

OCI-AML2 [11] = experiment: DNT cells pre-treated with Bcl-2 family protein inhibitors, used as effectors against OCI-AML2; settings: overnight pre-treatment, different concentrations
Text: FIG. 5. […] (A) DNT cells were pre-treated with different concentrations of Obatoclax, ABT-737, or Venetoclax overnight and were used as effector cells against OCI-AML2. […] (C) Expression of Bcl-xL and Bcl-2 on ex vivo expanded DNT cells from three donors (UPN38, UPN108, and UPN134) and AML cell lines, OCI-AML2, TEX, NB4, and K562 determined by Western blot. Tubulin was used as a loading control.
As Bcl-2 is well-known to protect cells from apoptosis, one would expect that inhibiting this pathway would lead to increased T cell apoptosis and dampened T cell function.

CC1(C)CCC(CN2CCN(c3ccc(C(=O)NS(=O)(=O)c4ccc(NCC5CCOCC5)c([N+](=O)[O-])c4)c(Oc4cnc5[nH]ccc5c4)c3)CC2)=C(c2ccc(Cl)cc2)C1 [Venetoclax]
killing of autologous and allogeneic PBMCs by Ven-treated DNT cells [1]: insignificant degree of killing
change in cytotoxicity mediated by DNT cells against AML cells relative to untreated DNT cells [2]: increased the cytotoxicity of DNT cells the most
correlation between susceptibility of AML to DNT cells and degree of increase in DNT cell-mediated cytotoxicity by Ven treatment [3]: clear inverse correlation
T cell viability (DNT and Tconv cells): without changing the T cell viability
glycolysis, glycolytic capacity, and basal oxygen consumption rate of DNT cells (DNT cells): no significant effect
cytotoxicity of Ven-pretreated Tconv cells against AML cell lines [4]: significant enhancement of cytotoxicity of Tconv cells
cytotoxicity of Ven-pretreated DNT cells against AML cell lines [5]: increased cytotoxicity of DNT cells against three different AML cell lines, AML2-OCI, AML3-OCI, and KG1a, in a dose-dependent manner
viability of DNTs (DNTs [6]): without reducing the viability of the DNTs
T cell cytotoxicity against AML after different treatment times (OCI-AML2 [7]): increased T cell cytotoxicity against AML

COc1cccc2c1C(=O)c1c(O)c3c(c(O)c1C2=O)C[C@@](O)(C(C)=O)C[C@@H]3O[C@H]1C[C@H](N)[C@H](O)[C@H](C)O1 [daunorubicin]
level of cellular ROS in DNTs (DNTs [8]): lower ROS level

antimycin
DNT-mediated cytotoxicity against OCI-AML2 (OCI-AML2 [9]): did not enhance the cytotoxicity of DNTs
DNT viability (DNTs [8]): no to little loss of viability
level of cellular ROS in DNTs (DNTs [8]): Increased ROS levels

CC(=O)N[C@@H](CS)C(=O)O [NAC, N-acetylcysteine]
upregulation of activation markers (CD25 and CD69) by Venetoclax ([10]; 400 nM Venetoclax with 2 mM NAC, 18 hours): blocked the upregulation of activation markers
DNT cell-mediated cytotoxicity against AML ([10]; co-treatment with 400 nM Ven): abrogated the effect of Venetoclax on DNT cell-mediated cytotoxicity against AML
cellular ROS level in Venetoclax-treated DNT cells ([10]; co-treatment with 400 nM Ven): reduced the cellular ROS level

COC1=CC(c2cc3ccccc3[nH]2)=N/C1=C\c1[nH]c(C)cc1C [Obatoclax]
effect on DNT cells and their cytotoxicity against OCI-AML2 (OCI-AML2 [11]): induced DNT cell death or inhibited their cytotoxicity

Nc1ccn([C@@H]2O[C@H](CO)[C@@H](O)[C@@H]2O)c(=O)n1 [cytarabine]
level of cellular ROS in DNTs (DNTs [8]): Increased ROS levels

Reference: patent US20230059785A1, “METHODS FOR ENHANCING T CELLS USING VENETOCLAX” (University Health Network, priority 2020, published 2023)
